From patent US20180272034A1, “USE OF CSA COMPOUNDS TO PREVENT MICROBIAL BUILD-UP OR FOULING OF MEDICAL IMPLANTS” (BRIGHAM YOUNG UNIVERSITY, priority 2017, published 2018)

How the values were obtained:
Non-fermenters = test: Broth microdilution MIC, HABP/VABP clinical isolates; assay type: cell-based, A. baumannii species complex, P. aeruginosa, S. maltophilia; settings: Non-fermenters (22)
Description: CSA-131 was tested in vitro against a set of clinical isolates representing bacterial species commonly associated with hospital-acquired bacterial pneumonia (HABP) or ventilator-associated bacterial pneumonia (VABP). Antimicrobial susceptibility testing for 74 clinical isolates was performed. Broth microdilution using frozen-form MIC panels consisted of three media types: cation-adjusted Mueller-Hinton broth (CA-HMB), CA-HMB supplemented with 2.5-5% lysed horse blood for S. pneumoniae and Haemophilus test media (HTM) for Haemophilus spp.

Candida auris isolates = test: Antifungal MIC, CLSI M27-A3; assay type: cell-based
Description: The antifungal effectiveness of CSA-131 was tested against 100 Candida auris isolates. The C. auris isolates were from all over the world and covered known C. auris clades. The selection included isolated known to have elevated MIC values against fluconazole, the echinocandins, and/or amphotericin B.
Testing was performed according to the standards of the Clinical and Laboratory Standards Institute reference methodology M27-A3 (as of 2017). CSA-131 was dissolved in DMSO and diluted as described in M27-A3 to give a final DMSO concentration of <1%. Dilution plates were stored at −70° C. until used and were used within one week of being produced. All results were read visually after 24 hours of incubation at the lowest drug concentration at which there was a 50% decrease in growth by visual inspection. Quality control isolates C. parapsilosis ATCC 22019 and C. krusei ATCC 6258 were included on each day of testing although there are no standard QC values for these isolates against this compound. The MIC values for ATCC 22019 and ATCC 6258 remained within a tight range of 1-2 dilutions over the course of the study.

[1] = 100 C. auris isolates, 50% decrease in growth, 24 hours
[2] = fluconazole Resistant isolates, 69
[3] = fluconazole Susceptible isolates, 30
[4] = isolates with elevated echinocandin MICs, 7

CCCCCCCCCCCCNCCC[C@@H](C)[C@H]1CC[C@H]2[C@@H]3[C@H](OCCCN)C[C@@H]4C[C@H](OCCCN)CC[C@]4(C)[C@H]3C[C@H](OCCCN)[C@]12C.Cl.Cl.Cl.Cl [CSA-131]
MIC50 (Non-fermenters): 4 mg/L
MIC90 (Non-fermenters): 4 mg/L
No. of isolates at MIC 2 μg/ml (Non-fermenters): 9
No. of isolates at MIC 4 μg/ml (Non-fermenters): 12
No. of isolates at MIC 8 μg/ml (Non-fermenters): 1
cumulative % inhibited at 2 μg/ml (Non-fermenters): 40.9%
cumulative % inhibited at 4 μg/ml (Non-fermenters): 95.5%
cumulative % inhibited at 8 μg/ml (Non-fermenters): 100%
No. of Isolates at MIC 0.016 (Candida auris isolates; 100 C. auris isolates): 0
No. of Isolates at MIC 0.03 (Candida auris isolates; 100 C. auris isolates): 0
No. of Isolates at MIC 0.0625 (Candida auris isolates; 100 C. auris isolates): 0
No. of Isolates at MIC 0.125 (Candida auris isolates; 100 C. auris isolates): 0
No. of Isolates at MIC 0.25 (Candida auris isolates; 100 C. auris isolates): 0
No. of Isolates at MIC 0.5 (Candida auris isolates; 100 C. auris isolates): 39
No. of Isolates at MIC 1 (Candida auris isolates; 100 C. auris isolates): 61
No. of Isolates at MIC 2 (Candida auris isolates; 100 C. auris isolates): 0
No. of Isolates at MIC <0.016 (Candida auris isolates; 100 C. auris isolates): 0
No. of Isolates at MIC >2 (Candida auris isolates; 100 C. auris isolates): 0
MIC50 (Candida auris isolates; [1]): 1 mg/L
MIC90 (Candida auris isolates; [1]): 1 mg/L
MIC Mode (Candida auris isolates; [1]): 1 mg/L
MIC Range (Candida auris isolates; 100 C. auris isolates, 50% decrease in growth, 24 hours, in µg/mL): 0.5-1
activity against C. auris collection (Candida auris isolates; 100 isolates, 4 clades): showed activity against all C. auris
MIC50 (Candida auris isolates; Clade 1, 47 isolates): 1 mg/L
MIC90 (Candida auris isolates; Clade 1, 47 isolates): 1 mg/L
MIC Mode (Candida auris isolates; Clade 1, 47 isolates): 1 mg/L
MIC Range (Candida auris isolates; Clade 1, 47 isolates): 0.5 to 1 µg/mL
MIC50 (Candida auris isolates; Clade 2, 11 isolates): 1 mg/L
MIC90 (Candida auris isolates; Clade 2, 11 isolates): 1 mg/L
MIC Mode (Candida auris isolates; Clade 2, 11 isolates): 1 mg/L
MIC Range (Candida auris isolates; Clade 2, 11 isolates): 0.5 to 1 µg/mL
MIC50 (Candida auris isolates; Clade 3, 39 isolates): 1 mg/L
MIC90 (Candida auris isolates; Clade 3, 39 isolates): 1 mg/L
MIC Mode (Candida auris isolates; Clade 3, 39 isolates): 1 mg/L
MIC Range (Candida auris isolates; Clade 3, 39 isolates): 0.5 to 1 µg/mL
MIC50 (Candida auris isolates; Clade 4, 3 isolates): 0.5 mg/L
MIC90 (Candida auris isolates; Clade 4, 3 isolates): 1 mg/L
MIC Mode (Candida auris isolates; Clade 4, 3 isolates): 0.5 mg/L
MIC Range (Candida auris isolates; Clade 4, 3 isolates): 0.5 to 1 µg/mL
MIC50 (Candida auris isolates; [2]): 1 mg/L
MIC90 (Candida auris isolates; [2]): 1 mg/L
MIC Mode (Candida auris isolates; [2]): 1 mg/L
MIC Range (Candida auris isolates; [2]): 0.5 to 1 µg/mL
MIC50 (Candida auris isolates; [3]): 0.5 mg/L
MIC90 (Candida auris isolates; [3]): 1 mg/L
MIC Range (Candida auris isolates; [3]): 0.5 to 1 µg/mL
MIC50 (Candida auris isolates; [4]): 1 mg/L
MIC90 (Candida auris isolates; [4]): 1 mg/L
MIC Mode (Candida auris isolates; [4]): 1 mg/L
MIC Range (Candida auris isolates; isolates with elevated echinocandin MICs, 7, in µg/mL): 0.5-1
